From US20230271966A1, “PRPK INHIBITORS” (Dana-Farber Cancer Institute, Inc., priority 2020, published 2023)

Assays:
[1] = target: PRPK (Homo sapiens (Human), UniProt Q96S44); assay: Isothermal titration calorimetry (ITC), PRPK; type: binding; settings: for Kd: 20 μM protein titrated with 200 μM test compound, 20 mM HEPES pH 7.5, 150 mM NaCl, 0.5 mM TCEP, 2% DMSO, 25° C, single site model; for PRPK binding Kd compared with pomalidomide: ITC, comparison in words with control Pomalidomide
Method: (§1) All calorimetric experiments were carried out using an Affinity ITC from TA Instruments (New Castle, Del.) equipped with an auto sampler in a buffer containing 20 mM HEPES, pH 7.5, 150 mM NaCl, 0.5 mM TCEP, and 2% DMSO at 25° C. 20 μM protein solution containing PRPK or Cereblon (CRBN) in the calorimetric cell was titrated with 200 μM of a test compound solution using 2 μL injection in 200 seconds intervals using a stirring speed at 125 rpm. Resulting isotherm was fitted with a single site model to yield thermodynamic parameters of ΔH, ΔS, stoichiometry, and Kd using NanoAnalyze software (TA instruments).

[2] = target: Cereblon (CRBN) (Homo sapiens (Human), UniProt Q96SW2); assay: Isothermal titration calorimetry (ITC), Cereblon (CRBN); type: binding; settings: for Kd: 20 μM protein titrated with 200 μM test compound, 20 mM HEPES pH 7.5, 150 mM NaCl, 0.5 mM TCEP, 2% DMSO, 25° C, single site model
Method: as §1

Chain of PRPK (Q96S44 whole entry): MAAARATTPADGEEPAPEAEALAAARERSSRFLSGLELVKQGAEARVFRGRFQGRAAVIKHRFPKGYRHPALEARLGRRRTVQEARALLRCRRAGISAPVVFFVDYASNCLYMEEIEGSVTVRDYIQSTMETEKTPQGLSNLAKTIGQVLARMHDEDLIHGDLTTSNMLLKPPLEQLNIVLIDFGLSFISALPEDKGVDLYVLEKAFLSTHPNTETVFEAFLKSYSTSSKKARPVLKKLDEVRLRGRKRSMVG
Chain of Cereblon (CRBN) (Q96SW2 whole entry, species assumed): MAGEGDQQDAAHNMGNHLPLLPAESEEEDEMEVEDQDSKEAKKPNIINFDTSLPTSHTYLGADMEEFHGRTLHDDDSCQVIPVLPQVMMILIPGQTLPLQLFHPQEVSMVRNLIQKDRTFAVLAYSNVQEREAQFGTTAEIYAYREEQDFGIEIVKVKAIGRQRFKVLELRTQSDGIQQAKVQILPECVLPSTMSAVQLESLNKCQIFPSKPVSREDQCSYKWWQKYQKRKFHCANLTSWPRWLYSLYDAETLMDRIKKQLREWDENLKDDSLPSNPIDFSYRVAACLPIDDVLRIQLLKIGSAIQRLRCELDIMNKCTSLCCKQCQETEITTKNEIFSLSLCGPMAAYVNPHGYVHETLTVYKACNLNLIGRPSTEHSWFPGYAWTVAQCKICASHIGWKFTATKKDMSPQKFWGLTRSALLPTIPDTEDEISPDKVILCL

SMILES | Kd [1] [µM] | PRPK binding Kd compared with pomalidomide [1] | Kd [2] [µM] | CRBN inhibition (conclusion in words from ITC) [2]
C[C@@]1(N2C(=O)c3ccc(C(=O)O)cc3C2=O)CCC(=O)NC1=O [Compound 12, (R)-2-(3-methyl-2,6-dioxopiperidin-3-yl)-1,3-dioxoisoindoline-5-carboxylic acid] | 0.28 ± 0.08 | lower than Pomalidomide | > 1000 | not CRBN inhibitors
O=C1CCC(N2C(=O)c3ccc(-c4cn[nH]c4)c(O)c3C2=O)C(=O)N1 (centres unmarked) [Compound 13, 2-(2,6-dioxopiperidin-3-yl)-4-hydroxy-5-(1H-pyrazol-4-yl)isoindoline-1,3-dione] | 1.9 ± 1.7 | lower than Pomalidomide | 0.54 | not CRBN inhibitors
C[C@@]1(N2C(=O)c3ccc(-c4cn[nH]c4)c(O)c3C2=O)CCC(=O)NC1=O [Compound 22, (R)-4-hydroxy-2-(3-methyl-2,6-dioxopiperidin-3-yl)-5-(1H-pyrazol-4-yl)isoindoline-1,3-dione] | > 1000 | – | > 1000 | –
C[C@@]1(N2C(=O)c3ccc(-c4n[nH]c(=S)o4)cc3C2=O)CCC(=O)NC1=O [Compound 30, (R)-2-(3-methyl-2,6-dioxopiperidin-3-yl)-5-(5-thioxo-4,5-dihydro-1,3,4-oxadiazol-2-yl)isoindoline-1,3-dione] | 0.36 ± 0.07 | lower than Pomalidomide | > 1000 | not CRBN inhibitors
